In US20050159360A1, “Compositions for the transport of therapeutic molecules into the lungs and use thereof for the treatment of lung cancers and pulmonary diseases” (SYNT:EM, a corporation of France, priority 2002, published 2005):

Assay: Pharmacokinetics/biodistribution of [14C]-tagged doxorubicin and vectorized doxorubicin in plasma and organs after intravenous injection in mice;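 note: radioactivity counted in plasma and organs of mice killed 1 to 60 min post-dose, converted to percentage of product per organ, five animals per time point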
Conditions: i.v., 1 mg/kg doxorubicin equivalent, 14C radioactivity
Description: About 0.6-1 microcurie was injected per animal. The doxorubicin was tagged with carbon 14 (specific activity 55 mCi/mmol). After the indicated time periods (1, 5, 15, 30, 60 minutes), the mice were sacrificed. The organs (lungs, liver, brain, kidneys, etc.) and the plasma were then collected and counted. The quantity of radioactivity in each organ was then expressed as quantity of product per gram of organ. In this study, five mice were used for each time period.
After injection of the doxorubicin or the vectorized doxorubicin, we compared the pharmacokinetics/biodistribution of the products in the plasma and the different organs. The quantity of each product was expressed as percentage of product per organ.

- Percentage of product in Brain after intravenous injection (time 1 minute): 0.06%
- Percentage of product in Heart after intravenous injection (time 1 minute): 0.58%
- Percentage of product in Kidneys after intravenous injection (time 1 minute): 3.37%
- Percentage of product in Liver after intravenous injection (time 1 minute): 17.81%
- Percentage of product in Lungs after intravenous injection (time 1 minute): 1.30%
- Percentage of product in Plasma after intravenous injection (time 1 minute): 1.84%
- Percentage of product in Brain after intravenous injection (time 5 minutes): 0.03%
- Percentage of product in Heart after intravenous injection (time 5 minutes): 0.52%
- Percentage of product in Kidneys after intravenous injection (time 5 minutes): 5.58%
- Percentage of product in Liver after intravenous injection (time 5 minutes): 23.02%
- Percentage of product in Lungs after intravenous injection (time 5 minutes): 1.24%
- Percentage of product in Plasma after intravenous injection (time 5 minutes): 0.53%
- Percentage of product in Brain after intravenous injection (time 15 minutes): 0.03%
- Percentage of product in Heart after intravenous injection (time 15 minutes): 0.54%
- Percentage of product in Kidneys after intravenous injection (time 15 minutes): 5.24%
- Percentage of product in Liver after intravenous injection (time 15 minutes): 20.22%
- Percentage of product in Lungs after intravenous injection (time 15 minutes): 1.14%
- Percentage of product in Plasma after intravenous injection (time 15 minutes): 0.34%
- Percentage of product in Brain after intravenous injection (time 30 minutes): 0.02%
- Percentage of product in Heart after intravenous injection (time 30 minutes): 0.45%
- Percentage of product in Kidneys after intravenous injection (time 30 minutes): 4.48%
- Percentage of product in Liver after intravenous injection (time 30 minutes): 19.70%
- Percentage of product in Lungs after intravenous injection (time 30 minutes): 1.03%
- Percentage of product in Plasma after intravenous injection (time 30 minutes): 0.19%
- Percentage of product in Brain after intravenous injection (time 60 minutes): 0.02%
- Percentage of product in Heart after intravenous injection (time 60 minutes): 0.36%
- Percentage of product in Kidneys after intravenous injection (time 60 minutes): 2.43%
- Percentage of product in Liver after intravenous injection (time 60 minutes): 17.80%
- Percentage of product in Lungs after intravenous injection (time 60 minutes): 0.85%
- Percentage of product in Plasma after intravenous injection (time 60 minutes): 0.18%
Compound: COc1cccc2c1C(=O)c1c(O)c3c(c(O)c1C2=O)C[C@@](O)(C(=O)CO)C[C@@H]3O[C@H]1C[C@H](N)[C@H](O)[C@H](C)O1 [compound 1, doxorubicin]
